Experimental data reported in ChEMBL document CHEMBL3774317, “Design and synthesis of novel tamoxifen analogues that avoid CYP2D6 metabolism” (Eur J Med Chem, 2016).

Assays:
MCF7 [1] = assay: Antiproliferative activity against human MCF7 cells after 72 hrs by MTT assay
Estrogen receptor = biological target: T1, Estrogen receptor (Homo sapiens, UniProt P03372)
T1 sequence (P03372 whole entry): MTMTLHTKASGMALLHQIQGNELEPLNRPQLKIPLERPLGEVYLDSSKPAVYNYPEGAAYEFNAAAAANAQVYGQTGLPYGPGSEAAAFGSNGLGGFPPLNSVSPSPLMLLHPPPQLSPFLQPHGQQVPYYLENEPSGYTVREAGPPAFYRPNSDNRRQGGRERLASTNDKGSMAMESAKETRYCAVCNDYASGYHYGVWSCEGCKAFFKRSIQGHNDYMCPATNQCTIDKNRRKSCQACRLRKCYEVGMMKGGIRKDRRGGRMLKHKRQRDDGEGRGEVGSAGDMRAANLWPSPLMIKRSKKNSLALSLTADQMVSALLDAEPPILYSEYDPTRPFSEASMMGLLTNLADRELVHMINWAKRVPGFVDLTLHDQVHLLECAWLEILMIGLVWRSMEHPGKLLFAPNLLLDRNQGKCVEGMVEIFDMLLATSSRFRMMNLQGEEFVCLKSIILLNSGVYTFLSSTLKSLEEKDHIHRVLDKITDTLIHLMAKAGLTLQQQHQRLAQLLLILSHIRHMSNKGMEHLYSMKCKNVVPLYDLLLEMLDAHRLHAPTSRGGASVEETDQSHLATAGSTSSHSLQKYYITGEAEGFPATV
Description: Displacement of [3H]-E2 from human ER-alpha incubated for 16 to 20 hrs by liquid scintillation counting analysis

MDA-MB-468 = assay: Cytotoxicity against human MDA-MB-468 cells assessed as growth inhibition after 48 hrs by SRB assay; assay type: functional; conditions: MDA-MB-468, 48 h
EKVX = assay: Cytotoxicity against human EKVX cells assessed as growth inhibition after 48 hrs by SRB assay; assay type: functional
[2] = Cytotoxicity against human SNB75 cells assessed as growth inhibition after 48 hrs by SRB assay; assay type: functional; conditions: SNB-75, 48 h
[3] = Cytotoxicity against human SKOV3 cells assessed as growth inhibition after 48 hrs by SRB assay; assay type: functional; conditions: SK-OV-3, 48 h
MDA-MB-435 = assay: Cytotoxicity against human MDA-MB-435 cells assessed as growth inhibition after 48 hrs by SRB assay; assay type: functional; conditions: MDA-MB-435, 48 h
MCF7 [4] = assay: Cytotoxicity against human MCF7 cells assessed as growth inhibition after 48 hrs by SRB assay; assay type: functional; conditions: MCF7, 48 h
[5] = Cytotoxicity against human HCT15 cells assessed as growth inhibition after 48 hrs by SRB assay; assay type: functional; conditions: HCT-15, 48 h
[6] = Cytotoxicity against human UO31 cells assessed as growth inhibition after 48 hrs by SRB assay; assay type: functional; conditions: UO-31, 48 h
[7] = Cytotoxicity against human MOLT4 cells assessed as growth inhibition after 48 hrs by SRB assay; assay type: functional; conditions: MOLT-4, 48 h
Estrogen receptor beta = Estrogen receptor beta (Homo sapiens, UniProt Q92731)
Estrogen receptor beta, sequence (Q92731 whole entry): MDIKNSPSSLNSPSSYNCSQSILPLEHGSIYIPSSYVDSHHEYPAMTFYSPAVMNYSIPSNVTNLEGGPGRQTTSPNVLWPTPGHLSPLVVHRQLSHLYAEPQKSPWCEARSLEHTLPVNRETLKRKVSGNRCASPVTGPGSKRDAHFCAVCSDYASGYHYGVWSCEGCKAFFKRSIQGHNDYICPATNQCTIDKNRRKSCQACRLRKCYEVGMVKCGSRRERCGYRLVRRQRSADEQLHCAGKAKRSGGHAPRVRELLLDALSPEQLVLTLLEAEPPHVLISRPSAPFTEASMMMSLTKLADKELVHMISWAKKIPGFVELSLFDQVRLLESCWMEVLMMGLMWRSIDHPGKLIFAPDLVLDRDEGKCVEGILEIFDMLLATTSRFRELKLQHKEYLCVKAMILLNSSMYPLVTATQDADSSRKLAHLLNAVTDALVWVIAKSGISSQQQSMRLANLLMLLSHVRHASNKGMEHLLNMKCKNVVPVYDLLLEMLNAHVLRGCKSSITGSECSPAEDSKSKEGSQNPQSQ
Description: Displacement of [3H]-E2 from human ER-beta incubated for 16 to 20 hrs by liquid scintillation counting analysis

SMILES | IC50 (MCF7 [1]; mcf7) [nM] | IC50 (Estrogen receptor) [nM] | further results
CCCC(=O)Oc1ccc(/C(=C(/C)c2ccccc2)c2ccc(OCCN3CCCCC3)cc2)cc1 | 2420 | 33.3 | 
CCCCCCCCCC(=O)Oc1ccc(/C(=C(/C)c2ccccc2)c2ccc(OCCN3CCCCC3)cc2)cc1 | 1520 | 81 | 
C/C(=C(/c1ccc(O)cc1)c1ccc(OCCN(C)C)cc1)c1ccccc1 | 1480 | 1.3 | 
CCCCCCCCCC(=O)Oc1ccc(/C(=C(/C)c2ccccc2)c2ccc(OCCN(C)C)cc2)cc1 | 1120 | 31.9 | 
CC(=O)Oc1ccc(/C(=C(\C)c2ccccc2)c2ccc(OCCN(C)C)cc2)cc1 | 2740 | 22 | 
CCCC(=O)Oc1ccc(/C(=C(/C)c2ccccc2)c2ccc(OCCN(C)C)cc2)cc1 | 3170 | 34.5 | 
CC/C(=C(\c1ccccc1)c1ccc(OCCN(C)C)cc1)c1ccccc1 [TAMOXIFEN] |  |  | IC50 (MCF7 [1]; Homo sapiens, MCF7, 72 h): 4400 nM; GI50 (MDA-MB-468): 2500 nM; GI50 (EKVX): 6300 nM; GI50 [2]: 5010 nM; GI50 [3]: 10000 nM; GI50 (MDA-MB-435): 3160 nM; GI50 (MCF7 [4]): 1580 nM; GI50 [5]: 3160 nM; GI50 [6]: 6300 nM; GI50 [7]: 2500 nM
CCC(=C(c1ccc(O)cc1)c1ccc(OCCN(C)C)cc1)c1ccccc1 |  |  | IC50 (MCF7 [1]; Homo sapiens, MCF7, 72 h): 2790 nM
CC(=O)Oc1ccc(/C(=C(/C)c2ccccc2)c2ccc(OCCN3CCCC3)cc2)cc1 | 2600 | 7.7 | IC50 (Estrogen receptor beta): 260 nM
CCCC(=O)Oc1ccc(/C(=C(/C)c2ccccc2)c2ccc(OCCN3CCCC3)cc2)cc1 | 1200 | 27.1 | 
CC(=O)Oc1ccc(/C(=C(/C)c2ccccc2)c2ccc(OCCN3CCCCC3)cc2)cc1 | 2460 | 12.4 | 
C/C(=C(/c1ccc(O)cc1)c1ccc(OCCN2CCCCC2)cc1)c1ccccc1 | 1240 | 0.4 | 
